One data set deals with T1, human recombinant AChE (Homo sapiens, UniProt P22303).
T1 construct: purchased Aldrich (Milan, Italy)
The data set can be described thus: biochemical. The conditions noted are these: for inhibition at 10 µM: read-out: hAChE % inhibition at 10 μM ± SD, 10 μM inhibitor, human recombinant AChE, n = 3. The protocol:
(§1) All enzymes and chemicals were purchased from Aldrich (Milan, Italy). Inhibition assays were performed in 96-well plates (Greiner Bio-One GmbH, Frickenhausen, Germany) using an Infinite M1000 plate reader (Tecan, Milan, Italy). Incubations were performed in triplicate, and final inhibition values were determined as mean ± SEM (n = 3).
The inhibition of human recombinant AChE was determined as already reported by applying Ellman’s spectrophotometric method.

In a further data set the target is T2, hMAO-B (Homo sapiens, UniProt P27338).
T2 construct: purchased Aldrich (Milan, Italy)
T2 sequence (P27338 1-520): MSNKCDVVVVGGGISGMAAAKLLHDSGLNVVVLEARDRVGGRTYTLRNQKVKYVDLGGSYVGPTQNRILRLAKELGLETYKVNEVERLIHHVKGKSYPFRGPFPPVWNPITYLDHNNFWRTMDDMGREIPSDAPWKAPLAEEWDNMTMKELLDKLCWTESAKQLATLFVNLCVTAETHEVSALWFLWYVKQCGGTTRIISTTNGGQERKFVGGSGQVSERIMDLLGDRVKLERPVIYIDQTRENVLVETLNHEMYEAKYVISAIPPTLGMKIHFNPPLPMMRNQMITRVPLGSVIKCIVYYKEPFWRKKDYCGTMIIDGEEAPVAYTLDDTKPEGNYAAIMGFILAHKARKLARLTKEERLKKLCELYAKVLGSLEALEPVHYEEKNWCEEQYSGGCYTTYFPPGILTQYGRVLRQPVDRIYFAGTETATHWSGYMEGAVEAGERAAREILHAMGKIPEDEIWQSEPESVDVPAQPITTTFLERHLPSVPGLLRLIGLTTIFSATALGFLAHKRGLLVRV
The data set can be described thus: biochemical. The conditions noted are these: human recombinant MAO-B; for IC50: kynuramine, 37 °C, pH 7.4, n = 3, read-out: hMAO-B IC50 ± SEM; for inhibition at 10 µM: read-out: hMAO-B % inhibition at 10 μM ± SD, 10 μM inhibitor, n = 3. The protocol: as §1
(§2) Incubations were set at 37 °C in phosphate buffer with a pH of 7.4 for 20 min before the addition of enzyme, and the fluorescence was measured after additional incubation of 30 min.

The target in the next data set is T3, hMAO-A (Homo sapiens, UniProt P21397).
T3 construct: purchased Aldrich (Milan, Italy)
T3 sequence (P21397 1-527): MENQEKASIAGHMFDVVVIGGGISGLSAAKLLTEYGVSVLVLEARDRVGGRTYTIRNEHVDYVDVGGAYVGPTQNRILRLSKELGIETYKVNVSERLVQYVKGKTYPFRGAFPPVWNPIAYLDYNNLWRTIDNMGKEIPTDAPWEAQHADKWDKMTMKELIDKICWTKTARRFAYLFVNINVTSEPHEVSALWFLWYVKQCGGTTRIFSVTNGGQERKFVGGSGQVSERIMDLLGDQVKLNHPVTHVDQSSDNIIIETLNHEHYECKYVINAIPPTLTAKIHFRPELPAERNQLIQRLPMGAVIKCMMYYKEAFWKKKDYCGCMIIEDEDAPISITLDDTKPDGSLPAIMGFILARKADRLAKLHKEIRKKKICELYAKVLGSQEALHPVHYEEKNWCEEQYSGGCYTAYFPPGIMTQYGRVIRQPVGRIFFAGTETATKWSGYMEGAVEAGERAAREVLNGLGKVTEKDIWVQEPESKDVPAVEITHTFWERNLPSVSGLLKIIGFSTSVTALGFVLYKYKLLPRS
The data set can be described thus: biochemical. To be noted: read-out: hMAO-A % inhibition at 10 μM ± SD; 10 μM inhibitor, human recombinant MAO-A, n = 3. The protocol: as §1, §2

The conditions of data set [1]: in silico and in vitro studies; cited from earlier work.
A further data set relates to hAChE. Further details: method as in PMID 10213168. The conditions noted are these: read-out: hAChE IC50 in vitro; cited from earlier work.

T1 sequence (P22303 32-614): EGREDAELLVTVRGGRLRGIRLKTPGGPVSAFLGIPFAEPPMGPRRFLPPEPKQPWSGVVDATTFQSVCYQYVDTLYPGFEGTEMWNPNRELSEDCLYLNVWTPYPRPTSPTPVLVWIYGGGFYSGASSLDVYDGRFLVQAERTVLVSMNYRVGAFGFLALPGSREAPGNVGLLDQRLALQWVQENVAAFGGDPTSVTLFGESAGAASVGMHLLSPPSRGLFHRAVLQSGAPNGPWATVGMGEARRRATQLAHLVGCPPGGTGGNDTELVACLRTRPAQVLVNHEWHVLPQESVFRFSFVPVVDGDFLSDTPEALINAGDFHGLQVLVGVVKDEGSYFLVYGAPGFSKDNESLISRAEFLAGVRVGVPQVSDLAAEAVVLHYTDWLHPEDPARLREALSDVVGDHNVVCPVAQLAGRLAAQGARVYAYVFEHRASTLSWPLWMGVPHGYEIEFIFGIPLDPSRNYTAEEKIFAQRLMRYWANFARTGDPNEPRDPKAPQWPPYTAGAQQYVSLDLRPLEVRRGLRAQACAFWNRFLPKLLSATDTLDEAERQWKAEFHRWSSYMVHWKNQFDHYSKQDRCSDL

As a reminder, the inhibition is the relative decrease from the control value, in per cent. Broadly, the IC50 is the midpoint of a concentration-inhibition curve. On to `COc1ccccc1N1CCN(CCCOc2cc(C)cc3oc(=O)cc(C)c23)CC1` [Compound 1, 4,7-dimethyl-5-{3-[4-(2-methoxyphenyl)piperazin-1-yl]propoxy}coumarin], for which the inhibition at 10 µM at human recombinant AChE was determined as 61 ± 1%; at hMAO-A, 44 ± 4%. Further, at hMAO-B, the IC50 is 2180 ± 480 nM.

With `COc1ccccc1N1CCN(CCCCOc2cc(C)cc3oc(=O)cc(C)c23)CC1` [Compound 2, 4,7-dimethyl-5-[4-(4-(2-methoxyphenyl)piperazin-1-yl)butoxy]coumarin], the inhibition at 10 µM amounted to 61 ± 4% on human recombinant AChE, 33 ± 2% on hMAO-B and 19 ± 1% at hMAO-A.

Regarding `COc1cccc(N2CCN(CCCOc3cc(C)cc4oc(=O)cc(C)c34)CC2)c1` [Compound 3, 4,7-dimethyl-5-[3-(4-(3-methoxyphenyl)piperazin-1-yl)propoxy]coumarin], the figures for the inhibition at 10 µM on human recombinant AChE and on hMAO-A were 53 ± 2% and 39 ± 5%, respectively. For the same compound, the pharmacokinetic properties entry in data set [1] was “excellent pharmacokinetic properties”. Further, the IC50 at hMAO-B came to 1880 ± 450 nM.

Turning to `COc1cccc(N2CCN(CCCCOc3cc(C)cc4oc(=O)cc(C)c34)CC2)c1` [Compound 4, 4,7-dimethyl-5-[4-(4-(3-methoxyphenyl)piperazin-1-yl)butoxy]coumarin], the inhibition at 10 µM at human recombinant AChE is 56 ± 1%; at hMAO-A, 38 ± 4%. The half-inhibitory concentration (IC50) at hMAO-B was determined as 3180 ± 630 nM.

Consider `COc1ccccc1N1CCN(CCCOc2c(C(C)=O)c(C)cc3oc(=O)cc(C)c23)CC1` [Compound 5, 6-acetyl-4,7-dimethyl-5-[3-(4-(2-methoxyphenyl)piperazin-1-yl)propoxy]coumarin], for which the inhibition at 10 µM on human recombinant AChE turned out to be 50 ± 6%; on hMAO-B it was 34 ± 2%; at hMAO-A, 22 ± 3%.

As to `COc1ccccc1N1CCN(CCCCOc2c(C(C)=O)c(C)cc3oc(=O)cc(C)c23)CC1` [Compound 6, 6-acetyl-4,7-dimethyl-5-[4-(4-(2-methoxyphenyl)piperazin-1-yl)butoxy]coumarin], the inhibition at 10 µM on human recombinant AChE was found to be 48 ± 1%; on hMAO-B, 43 ± 3%; on hMAO-A it was 30 ± 5%.

With `COc1cccc(N2CCN(CCCOc3c(C(C)=O)c(C)cc4oc(=O)cc(C)c34)CC2)c1` [Compound 7, 6-acetyl-4,7-dimethyl-5-[3-(4-(3-methoxyphenyl)piperazin-1-yl)propoxy]coumarin], the figures for the inhibition at 10 µM at human recombinant AChE, at hMAO-B and on hMAO-A were 46 ± 3%, 35 ± 3% and 39 ± 3%, respectively.

With `COc1cccc(N2CCN(CCCCOc3c(C(C)=O)c(C)cc4oc(=O)cc(C)c34)CC2)c1` [Compound 8, 6-acetyl-4,7-dimethyl-5-[4-(4-(3-methoxyphenyl)piperazin-1-yl)butoxy]coumarin], the inhibition at 10 µM is 54 ± 8% on human recombinant AChE, 26 ± 2% on hMAO-B and 55 ± 2% at hMAO-A.

Turning to `COc1ccccc1N1CCN(CCCOc2ccc3c(C)cc(=O)oc3c2C(C)=O)CC1` [Compound 9, 8-acetyl-7-{3-[4-(2-methoxyphenyl)piperazin-1-yl]propoxy}-4-methylchromen-2-one], the inhibition at 10 µM is 59 ± 7% at human recombinant AChE and 32 ± 4% on hMAO-A. Also, the half-maximal inhibitory concentration (IC50) at hMAO-B amounted to 4760 ± 340 nM.

With `COc1ccccc1N1CCN(CCCCOc2ccc3c(C)cc(=O)oc3c2C(C)=O)CC1` [Compound 10, 8-acetyl-7-{4-[4-(2-methoxyphenyl)piperazin-1-yl]butoxy}-4-methylchromen-2-one], the half-maximal inhibitory concentration (IC50) on human recombinant AChE was determined as 1520 ± 660 nM. Also, the pharmacokinetic properties result in data set [1] was “excellent pharmacokinetic properties”. Besides, the inhibition at 10 µM at hMAO-B was found to be 24 ± 1%; at hMAO-A it was 52 ± 4%.

With `COc1cc2oc(=O)c(C)c(C)c2cc1OCCCN1CCN(c2ccccc2OC)CC1` [Ensaculin], in the data set with hAChE, the IC50 was 360 nM.

(Values after article PMC11641184, “Coumarin Derivative Hybrids: Novel Dual Inhibitors Targeting Acetylcholinesterase and Monoamine Oxidases for Alzheimer’s Therapy” (International Journal of Molecular Sciences, 2024).)
